Here are results for one compound from publication PMC5218480 (PLoS ONE, 2017).

In the test the test system is MV-4-11 cells. In words: Gene expression microarray analysis (Affymetrix PrimeView) and GSEA. The class given is cell-based, human. Further details: RFU PODN (11730768_x_at) / Fold change /veh PODN (11730768_x_at) / RFU LINC00158 (11744669_a_at) / Fold change /veh LINC00158 (11744669_a_at) / RFU DUSP10 (11751237_a_at) / Fold change /veh DUSP10 (11751237_a_at) / RFU ID3 (11757404_x_at) / Fold change /veh ID3 (11757404_x_at) / RFU PLEKHG5 (11737974_s_at) / Fold change /veh PLEKHG5 (11737974_s_at) / RFU LRRC4B (11730491_at) / Fold change /veh LRRC4B (11730491_at) / RFU GIMAP4 (11747438_a_at) / Fold change /veh GIMAP4 (11747438_a_at) / RFU KRT8 (11758183_x_at) / Fold change /veh KRT8 (11758183_x_at) / RFU CNN1 (11734310_a_at) / Fold change /veh CNN1 (11734310_a_at) / RFU VPS37D (11726825_at) / Fold change /veh VPS37D (11726825_at) / RFU C10orf10 (11716522_x_at) / Fold change /veh C10orf10 (11716522_x_at) / RFU KIR2DL2 /// KIR2DL4 /// KIR2DL5A /// KIR2DL5B /// KIR2DS1 /// KIR2DS2 /// KIR2DS3 /// KIR2DS4 /// KIR3DL3 /// KIR3DL3 /// KIR3DS1 (11738374_at) / Fold change /veh KIR2DL2 /// KIR2DL4 /// KIR2DL5A /// KIR2DL5B /// KIR2DS1 /// KIR2DS2 /// KIR2DS3 /// KIR2DS4 /// KIR3DL3 /// KIR3DL3 /// KIR3DS1 (11738374_at) / RFU C1QL1 (11718748_at) / Fold change /veh C1QL1 (11718748_at) / RFU TMPRSS4 (11747572_a_at) / Fold change /veh TMPRSS4 (11747572_a_at) / RFU HAMP (11756126_x_at) / Fold change /veh HAMP (11756126_x_at) / RFU RNFT2 (11725882_a_at) / Fold change /veh RNFT2 (11725882_a_at) / RFU NR4A2 (11747474_a_at) / Fold change /veh NR4A2 (11747474_a_at) / RFU ABCC12 (11746883_a_at) / Fold change /veh ABCC12 (11746883_a_at) / RFU TMEM136 (11760407_x_at) / Fold change /veh TMEM136 (11760407_x_at) / RFU CLDN22 /// WWC2 (11732394_at) / Fold change /veh CLDN22 /// WWC2 (11732394_at) / RFU HLA-DPB1 (11760878_x_at) / Fold change /veh HLA-DPB1 (11760878_x_at) / RFU SPINT1 (11716480_a_at) / Fold change /veh SPINT1 (11716480_a_at) / RFU GAP43 (11754022_s_at) / Fold change /veh GAP43 (11754022_s_at) / RFU A4GNT (11735810_at) / Fold change /veh A4GNT (11735810_at) / RFU PRB3 (11715151_x_at) / Fold change /veh PRB3 (11715151_x_at) / RFU TUBB4B (11761932_at) / Fold change /veh TUBB4B (11761932_at) / RFU CAPN14 (11732068_a_at) / Fold change /veh CAPN14 (11732068_a_at) / RFU TMCC2 (11721928_a_at) / Fold change /veh TMCC2 (11721928_a_at) / RFU IRGQ (11745062_a_at) / Fold change /veh IRGQ (11745062_a_at) / RFU FAM174B (11720279_a_at) / Fold change /veh FAM174B (11720279_a_at) / RFU TMPRSS4 (11748680_a_at) / Fold change /veh TMPRSS4 (11748680_a_at) / RFU FAM212B (11763350_a_at) / Fold change /veh FAM212B (11763350_a_at) / RFU PLEKHG5 (11743358_a_at) / Fold change /veh PLEKHG5 (11743358_a_at) / RFU ZSCAN30 (11745921_a_at) / Fold change /veh ZSCAN30 (11745921_a_at) / RFU CMKLR1 (11741424_a_at) / Fold change /veh CMKLR1 (11741424_a_at) / RFU LOC101060620 /// MAPK8IP1 (11723275_at) / Fold change /veh LOC101060620 /// MAPK8IP1 (11723275_at) / RFU SPTSSB (11747773_x_at) / Fold change /veh SPTSSB (11747773_x_at) / RFU PRSS12 (11739890_at) / Fold change /veh PRSS12 (11739890_at) / RFU BIN1 (11741810_x_at) / Fold change /veh BIN1 (11741810_x_at) / RFU WNT11 (11732464_a_at) / Fold change /veh WNT11 (11732464_a_at) / RFU C10orf10 (11716521_a_at) / Fold change /veh C10orf10 (11716521_a_at) / RFU C5orf56 (11738089_at) / Fold change /veh C5orf56 (11738089_at) / RFU CYB561 (11721691_x_at) / Fold change /veh CYB561 (11721691_x_at) / RFU ANKRD19P (11752326_a_at) / Fold change /veh ANKRD19P (11752326_a_at) / RFU OR2T12 /// OR2T33 /// OR2T8 (11738714_s_at) / Fold change /veh OR2T12 /// OR2T33 /// OR2T8 (11738714_s_at) / RFU VCAN (11748164_a_at) / Fold change /veh VCAN (11748164_a_at) / RFU JSRP1 (11732532_at) / Fold change /veh JSRP1 (11732532_at) / RFU KRTAP10-11 (11738290_x_at) / Fold change /veh KRTAP10-11 (11738290_x_at) / RFU MYO3A (11730013_a_at) / Fold change /veh MYO3A (11730013_a_at) / RFU EBF3 (11725865_a_at) / Fold change /veh EBF3 (11725865_a_at) / RFU CAMK2N1 (11719241_x_at) / Fold change /veh CAMK2N1 (11719241_x_at) / RFU C5orf56 (11738088_a_at) / Fold change /veh C5orf56 (11738088_a_at) / RFU OLFML3 (11715873_a_at) / Fold change /veh OLFML3 (11715873_a_at) / RFU LOC100653217 /// NTM (11731650_a_at) / Fold change /veh LOC100653217 /// NTM (11731650_a_at) / RFU MAPK11 (11762145_a_at) / Fold change /veh MAPK11 (11762145_a_at) / RFU FIZ1 (11724087_x_at) / Fold change /veh FIZ1 (11724087_x_at) / RFU OASL (11726364_x_at) / Fold change /veh OASL (11726364_x_at) / RFU SOX15 (11748057_x_at) / Fold change /veh SOX15 (11748057_x_at) / RFU CD79A (11719716_a_at) / Fold change /veh CD79A (11719716_a_at) / RFU HIST1H1D (11736915_at) / Fold change /veh HIST1H1D (11736915_at) / RFU CASKIN2 (11723855_a_at) / Fold change /veh CASKIN2 (11723855_a_at) / RFU LOC730098 (11760151_x_at) / Fold change /veh LOC730098 (11760151_x_at) / RFU OR4N2 (11742367_at) / Fold change /veh OR4N2 (11742367_at) / RFU PRRT2 (11749266_a_at) / Fold change /veh PRRT2 (11749266_a_at) / RFU SNX32 (11753110_a_at) / Fold change /veh SNX32 (11753110_a_at) / RFU CDHR5 (11726645_a_at) / Fold change /veh CDHR5 (11726645_a_at) / RFU RCAN1 (11760418_a_at) / Fold change /veh RCAN1 (11760418_a_at) / RFU FAM167A (11723789_a_at) / Fold change /veh FAM167A (11723789_a_at) / RFU FAM26E (11764081_at) / Fold change /veh FAM26E (11764081_at) / RFU ISYNA1 (11749810_s_at) / Fold change /veh ISYNA1 (11749810_s_at) / RFU ACY1 (11761880_at) / Fold change /veh ACY1 (11761880_at) / RFU 11764098_at / Fold change /veh 11764098_at / RFU SAMD14 (11745864_x_at) / Fold change /veh SAMD14 (11745864_x_at) / RFU NPB (11741838_a_at) / Fold change /veh NPB (11741838_a_at) / RFU TMPRSS6 (11731388_a_at) / Fold change /veh TMPRSS6 (11731388_a_at) / RFU KRTAP10-2 (11738614_at) / Fold change /veh KRTAP10-2 (11738614_at) / RFU ARHGAP8 /// PRR5-ARHGAP8 (11727945_x_at) / Fold change /veh ARHGAP8 /// PRR5-ARHGAP8 (11727945_x_at) / RFU KRTAP5-7 /// NADSYN1 (11734609_at) / Fold change /veh KRTAP5-7 /// NADSYN1 (11734609_at) / RFU RASL12 (11751679_a_at) / Fold change /veh RASL12 (11751679_a_at) / RFU CDKN2B (11736163_a_at) / Fold change /veh CDKN2B (11736163_a_at) / RFU PRF1 (11729649_at) / Fold change /veh PRF1 (11729649_at) / RFU, ZNF638 /// ZNF638-IT1 / Fold change vs veh, ZNF638 /// ZNF638-IT1 / RFU, PANK3 / Fold change vs veh, PANK3 / RFU, SH3YL1 / Fold change vs veh, SH3YL1 / RFU, ZEB2 / Fold change vs veh, ZEB2 / RFU, NRIP1 / Fold change vs veh, NRIP1 / RFU, PTTG1IP / Fold change vs veh, PTTG1IP / RFU, CAPN2 / Fold change vs veh, CAPN2 / RFU, MED14 / Fold change vs veh, MED14 / RFU, SNORA58 / Fold change vs veh, SNORA58 / RFU, C1orf63 / Fold change vs veh, C1orf63 / RFU, LRRFIP1 / Fold change vs veh, LRRFIP1 / RFU, NDUFAF7 / Fold change vs veh, NDUFAF7 / RFU, SLC12A2 / Fold change vs veh, SLC12A2 / RFU, IBTK / Fold change vs veh, IBTK / RFU, ESF1 / Fold change vs veh, ESF1 / Fold change vs veh, TMEM50B / RFU, TAOK1 / Fold change vs veh, TAOK1 / RFU, ACBD3 / Fold change vs veh, ACBD3 / RFU, TMA16 / Fold change vs veh, TMA16 / RFU, RWDD3 / Fold change vs veh, RWDD3 / RFU, BCAT1 / Fold change vs veh, BCAT1 / RFU, EDEM3 / Fold change vs veh, EDEM3 / RFU, TMEM33 / Fold change vs veh, TMEM33 / RFU, WDR75 / Fold change vs veh, WDR75 / RFU, AHCTF1 / Fold change vs veh, AHCTF1 / RFU, TFRC / Fold change vs veh, TFRC / RFU, ZDHHC17 / Fold change vs veh, ZDHHC17 / RFU, NOM1 / Fold change vs veh, NOM1 / RFU, ARL8B / Fold change vs veh, ARL8B / RFU, ZBTB11 / Fold change vs veh, ZBTB11 / RFU, TAMM41 / Fold change vs veh, TAMM41 / RFU, KIAA1704 /// LOC100996395 / Fold change vs veh, KIAA1704 /// LOC100996395 / RFU, ING1 / Fold change vs veh, ING1 / RFU, TRMT61B / Fold change vs veh, TRMT61B / RFU, FUBP3 / Fold change vs veh, FUBP3 / RFU, TP53 / Fold change vs veh, TP53 / RFU, TNKS2 / Fold change vs veh, TNKS2 / RFU, ZFP14 / Fold change vs veh, ZFP14 / RFU, ACTR2 / Fold change vs veh, ACTR2 / RFU, PPP3R1 / Fold change vs veh, PPP3R1 / RFU, PIK3R1 / Fold change vs veh, PIK3R1 / RFU, HNRNPA1 / Fold change vs veh, HNRNPA1 / RFU, RNF170 / Fold change vs veh, RNF170 / RFU, ZNF28 / Fold change vs veh, ZNF28 / RFU, RNGTT / Fold change vs veh, RNGTT / RFU, OGT / Fold change vs veh, OGT / RFU, BRD1 / Fold change vs veh, BRD1 / RFU, MARS / Fold change vs veh, MARS / RFU, ZNF655 / Fold change vs veh, ZNF655 / RFU, FAHD1 / Fold change vs veh, FAHD1 / RFU, BDP1 / Fold change vs veh, BDP1 / RFU, LRRCC1 / Fold change vs veh, LRRCC1 / RFU, ARID1A / Fold change vs veh, ARID1A / RFU, ZNF146 / Fold change vs veh, ZNF146 / RFU, ZNF330 / Fold change vs veh, ZNF330 / RFU, GPN3 / Fold change vs veh, GPN3 / RFU, C9orf123 / Fold change vs veh, C9orf123 / RFU, N4BP2L2 / Fold change vs veh, N4BP2L2 / RFU, ARFIP1 / Fold change vs veh, ARFIP1 / RFU, FAM179B / Fold change vs veh, FAM179B / RFU, BCL10 / Fold change vs veh, BCL10 / RFU, UHRF1BP1L / Fold change vs veh, UHRF1BP1L / RFU, BET1 / Fold change vs veh, BET1 / RFU, CNOT2 / Fold change vs veh, CNOT2 / RFU, ZNF268 / Fold change vs veh, ZNF268 / Fold change vs veh, ZNF507 / RFU, DGCR2 / Fold change vs veh, DGCR2 / RFU, WDSUB1 / Fold change vs veh, WDSUB1 / Fold change vs veh, HSP90B1 /// MIR3652 / RFU, ADSS / Fold change vs veh, ADSS / RFU, GK / Fold change vs veh, GK / RFU, ZNF148 / Fold change vs veh, ZNF148 / RFU, TAF9 / Fold change vs veh, TAF9 / RFU, SLC1A5 / Fold change vs veh, SLC1A5 / RFU, SLMO2 / Fold change vs veh, SLMO2 / RFU, ABCC4 / Fold change vs veh, ABCC4 / RFU, LOC101060439 /// RAP1B / Fold change vs veh, LOC101060439 /// RAP1B / RFU, RFX7 / Fold change vs veh, RFX7 / RFU, GTPBP10 / Fold change vs veh, GTPBP10 / RFU, CNEP1R1 / Fold change vs veh, CNEP1R1 / RFU, BIVM-ERCC5 /// ERCC5 / Fold change vs veh, BIVM-ERCC5 /// ERCC5 / RFU, ILF3 / Fold change vs veh, ILF3 / RFU 11762660_at / Fold change /veh 11762660_at / RFU VCAN (11757783_s_at) / Fold change /veh VCAN (11757783_s_at) / RFU DDX43 (11728927_at) / Fold change /veh DDX43 (11728927_at) / RFU KRT8 (11758188_x_at) / Fold change /veh KRT8 (11758188_x_at) / RFU NKD1 (11759106_at) / Fold change /veh NKD1 (11759106_at) / RFU SRD5A1 (11742802_a_at) / Fold change /veh SRD5A1 (11742802_a_at) / RFU TPSAB1 /// TPSB2 (11721975_s_at) / Fold change /veh TPSAB1 /// TPSB2 (11721975_s_at) / RFU GSTM3 (11746129_a_at) / Fold change /veh GSTM3 (11746129_a_at) / RFU IL23R (11737362_x_at) / Fold change /veh IL23R (11737362_x_at) / RFU TMEM51 (11727254_a_at) / Fold change /veh TMEM51 (11727254_a_at) / RFU PIWIL2 (11732686_x_at) / Fold change /veh PIWIL2 (11732686_x_at) / RFU ORM1 (11744905_x_at) / Fold change /veh ORM1 (11744905_x_at) / RFU CCDC152 (11743942_at) / Fold change /veh CCDC152 (11743942_at) / RFU ECM1 (11717891_a_at) / Fold change /veh ECM1 (11717891_a_at) / RFU IL23R (11748794_a_at) / Fold change /veh IL23R (11748794_a_at) / RFU TNFAIP8L3 (11732012_x_at) / Fold change /veh TNFAIP8L3 (11732012_x_at) / RFU MBOAT4 (11741988_at) / Fold change /veh MBOAT4 (11741988_at) / RFU 11764193_at / Fold change /veh 11764193_at / RFU TMEM53 (11763286_at) / Fold change /veh TMEM53 (11763286_at) / RFU MAGEB2 (11727129_at) / Fold change /veh MAGEB2 (11727129_at) / RFU TMEM200A (11744735_a_at) / Fold change /veh TMEM200A (11744735_a_at) / RFU CCDC152 (11751479_a_at) / Fold change /veh CCDC152 (11751479_a_at) / RFU FAM211A (11726209_a_at) / Fold change /veh FAM211A (11726209_a_at) / RFU RGS16 (11746705_a_at) / Fold change /veh RGS16 (11746705_a_at) / RFU VCAN (11755009_s_at) / Fold change /veh VCAN (11755009_s_at) / RFU RHOB (11743442_s_at) / Fold change /veh RHOB (11743442_s_at) / RFU RGS16 (11720943_a_at) / Fold change /veh RGS16 (11720943_a_at) / RFU RGS16 (11720944_at) / Fold change /veh RGS16 (11720944_at) / RFU, VPS4B / Fold change vs veh, VPS4B / RFU, CREB1 / Fold change vs veh, CREB1 / RFU, DNAJC13 / Fold change vs veh, DNAJC13 / RFU, GNAQ / Fold change vs veh, GNAQ / RFU, CDK5R1 / Fold change vs veh, CDK5R1 / RFU, ZRANB3 / Fold change vs veh, ZRANB3 / RFU, CUL4A / Fold change vs veh, CUL4A / RFU, CCNY / Fold change vs veh, CCNY / RFU, UFL1 / Fold change vs veh, UFL1 / RFU, COG3 / Fold change vs veh, COG3 / RFU, DIAPH2 / Fold change vs veh, DIAPH2 / RFU, SKA2 / Fold change vs veh, SKA2 / RFU, AFF3 / Fold change vs veh, AFF3 / RFU, LMF1 / Fold change vs veh, LMF1 / RFU, IPO11 / Fold change vs veh, IPO11 / RFU, DFFB / Fold change vs veh, DFFB / RFU, FOXP1 / Fold change vs veh, FOXP1 / RFU, CARD8 / Fold change vs veh, CARD8 / RFU, STRN3 / Fold change vs veh, STRN3 / RFU, ADK / Fold change vs veh, ADK / RFU, RASSF2 / Fold change vs veh, RASSF2 / RFU, WIPF1 / Fold change vs veh, WIPF1 / RFU, LARP1B / Fold change vs veh, LARP1B / RFU, RASA1 / Fold change vs veh, RASA1 / RFU, RB1 / Fold change vs veh, RB1 / RFU, PPFIA1 / Fold change vs veh, PPFIA1 / RFU, MAT2A / Fold change vs veh, MAT2A / RFU, CCT5 / Fold change vs veh, CCT5 / RFU, WDR92 / Fold change vs veh, WDR92 / RFU, CUX1 / Fold change vs veh, CUX1 / RFU, TTC7A / Fold change vs veh, TTC7A / RFU, TMEM135 / Fold change vs veh, TMEM135 / RFU, DEPTOR / Fold change vs veh, DEPTOR / RFU, CPM / Fold change vs veh, CPM / RFU, DNAJB6 / Fold change vs veh, DNAJB6 / RFU, CACNA2D3 / Fold change vs veh, CACNA2D3 / RFU, DTX4 / Fold change vs veh, DTX4 / RFU, TFCP2 / Fold change vs veh, TFCP2 / RFU, GMCL1 /// GMCL1P1 / Fold change vs veh, GMCL1 /// GMCL1P1 / RFU, AEBP2 / Fold change vs veh, AEBP2 / RFU, SNHG1 /// SNORD22 /// SNORD25 /// SNORD26 /// SNORD27 /// SNORD28 /// SNORD29 /// SNORD31 / Fold change vs veh, SNHG1 /// SNORD22 /// SNORD25 /// SNORD26 /// SNORD27 /// SNORD28 /// SNORD29 /// SNORD31 / Fold change (Aza/veh), C12orf56 (ProbeSet 11735607_a_at) / Fold change (ACY-1035/veh), C12orf56 (ProbeSet 11735607_a_at) / Fold change (Aza/veh), FGFR1OP (ProbeSet 11751329_s_at) / Fold change (ACY-1035/veh), FGFR1OP (ProbeSet 11751329_s_at) / Fold change (Aza/veh), VPS36 (ProbeSet 11739960_a_at) / Fold change (ACY-1035/veh), VPS36 (ProbeSet 11739960_a_at) / RFU SYPL1 (11715823_x_at) / Fold change /veh SYPL1 (11715823_x_at) / RFU IGFBP7 (11715501_s_at) / Fold change /veh IGFBP7 (11715501_s_at) / RFU REEP3 (11722064_at) / Fold change /veh REEP3 (11722064_at) / RFU IGLL1 (11728026_x_at) / Fold change /veh IGLL1 (11728026_x_at): dose or concentration left out as unconfirmed. The settings on record: ProbeSet 11764057_s_at; LIST B.

Take `Nc1ncn([C@@H]2O[C@H](CO)[C@@H](O)[C@H]2O)c(=O)n1` [azacitidine]: the “RFU, C1orf63” value stood at 124.54 RFU.
